Source: US9464061B2, “N-hydroxylamino-barbituric acid derivatives” (priority 2014, dated 2016)
Marks after values point to notes of the source that are not given here.

Experiments:
[1] = pH 7.4
physchem [2] = conditions: buffer, pH 7.4
[3] = pH 7.4; remark: listed apart in the source
physchem [4] = conditions: buffer, pH 7.4; remark: listed apart in the source
[5] = reported in WO 2013/059194; cited from earlier work
[6] = UV-vis method for pKa determination of compound 4 (Example 20); type: physicochemical; conditions: 0.10 M phosphate buffer, 25° C., read-out: pKa (ring nitrogen proton)
Experimental: A 1 mM solution of compound 4 is prepared in acetonitrile. To a cuvette containing 3.0 mL of 0.10 M phosphate buffer of the desired pH at 25° C. is added 50 μL of the compound 4 solution. The solution is mixed quickly by rapidly drawing up and dispensing the solution with a pipette. Absorbance spectra are collected immediately after the solution has mixed and settled.

Which “k (rate of appearance of BA byproduct, single exponential fit)” value [1] does the source give for `O=C1NC(=O)C(Cc2ccc(Cl)cc2)(NO)C(=O)N1` [Compound 7, 5-(N-hydroxylamino)-5-(4-chlorobenzyl)-barbituric acid] here?
Its value is 0.00016 s⁻¹.

And the half-life (physchem [2])?
The half-life was 71 min.

With `O=C1NC(=O)C(Cc2cccs2)(NO)C(=O)N1` [Compound 16, 5-(N-hydroxylamino)-5-(2-thienylmethyl)-barbituric acid] as the compound, how does the “k (rate of appearance of BA byproduct, single exponential fit)” value [1] read?
Its value is 0.00029 s⁻¹.

What about the half-life (physchem [2]) of the same compound?
Its half-life is 40 min.

What does the source list for `CCCC(C)C1(NO)C(=O)NC(=O)NC1=O` (stereo not drawn) [Compound 12, 5-(N-hydroxylamino)-5-(1-methylbutyl)-barbituric acid]?
HNO yield [3]: 102; k (rate of disappearance of compound and appearance of BA byproduct, single exponential fit) [3]: 5e-06 s⁻¹; half-life (physchem [4]): 2310 min

For `CN1C(=O)N(C)C(=O)C(Cc2ccccc2)(NO)C1=O` [Compound 1, 5-(N-hydroxylamino)-5-benzyl-N,N-dimethylbarbituric acid], which melting point is on record?
The melting point was 155 to 157 °C.

And the HNO yield [3]?
Its HNO yield is 99^d.

And the “k (rate of disappearance of compound and appearance of BA byproduct, single exponential fit)” value [3]?
The value was 0.00031 s⁻¹.

And the “k (rate of appearance of BA byproduct, single exponential fit)” value [1]?
Its value is 0.00015 s⁻¹.

Which “k (rate of appearance of BA byproduct, single exponential fit)” value [1] does the source give for `COc1ccc(CC2(NO)C(=O)NC(=O)NC2=O)cc1` [Compound 6, 5-(N-hydroxylamino)-5-(4-methoxybenzyl)-barbituric acid] here?
Its value is 8.8e-05 s⁻¹.

What about the half-life (physchem [2]) of the same compound?
The half-life was 132 min.

With `CC1(NO)C(=O)NC(=O)NC1=O` [Compound 17, 5-(N-hydroxylamino)-5-methyl-barbituric acid] as the compound, how does the “k (rate of appearance of BA byproduct, single exponential fit)” value [1] read?
The value was 0.00025 s⁻¹.

What about the half-life (physchem [2]) of the same compound?
Its half-life is 46 min.

Which HNO production [5] does the source give for `CCC1(NO)C(=O)N(C)C(=O)N(C)C1=O` [5-ethyl HABA, 5-(N-hydroxylamine)-5-ethyl-N,N-dimethylbarbituric acid] here?
Its HNO production is “less than the desired amount of HNO”.

Which pKa [6] does the source give for `CCC1(NO)C(=O)NC(=O)NC1=O` [Compound 4, 5-(N-hydroxylamino)-5-ethyl-barbituric acid] here?
Its pKa is about 7.4.

What about the melting point of the same compound?
Its melting point is over 300 °C.

And the HNO yield [3]?
The HNO yield was 97^d.

What about the “k (rate of disappearance of compound and appearance of BA byproduct, single exponential fit)” value [3] of the same compound?
Its value is 0.00011 s⁻¹.

What about the “k (rate of appearance of BA byproduct, single exponential fit)” value [1] of the same compound?
Its value is 3.7e-05 s⁻¹.

With `O=C1NC(=O)C(Cc2ccccc2Cl)(NO)C(=O)N1` [Compound 14, 5-(N-hydroxylamino)-5-(2-chlorobenzyl)-barbituric acid] as the compound, how does the “k (rate of appearance of BA byproduct, single exponential fit)” value [1] read?
Its value is 0.00029 s⁻¹.

And the half-life (physchem [2])?
The half-life was 41 min.

With `C=CCC1(NO)C(=O)NC(=O)NC1=O` [Compound 9, 5-(N-hydroxylamino)-5-(2-propen-1-yl)-barbituric acid] as the compound, how does the “k (rate of appearance of BA byproduct, single exponential fit)” value [1] read?
The value was 0.00013 s⁻¹.

And the half-life (physchem [2])?
The half-life was 90 min.

Which results are given for `COc1ccc(CC2(NO)C(=O)N(C)C(=O)N(C)C2=O)cc1` [Compound 2, 5-(N-hydroxylamino)-5-(4-methoxybenzyl)-N,N-dimethylbarbituric acid]?
melting point: 108 to 110 °C; HNO yield [3]: 96^d; k (rate of disappearance of compound and appearance of BA byproduct, single exponential fit) [3]: 0.00015 s⁻¹; k (rate of appearance of BA byproduct, single exponential fit) [1]: 8e-05 s⁻¹

Which “k (rate of appearance of BA byproduct, single exponential fit)” value [1] does the source give for `O=C1NC(=O)C(Cc2ccccc2)(NO)C(=O)N1` [Compound 5, 5-(N-hydroxylamino)-5-benzyl-barbituric acid] here?
The value was 0.00013 s⁻¹.

What about the half-life (physchem [2]) of the same compound?
The half-life was 92 min.

Which results are given for `CC(C)C1(NO)C(=O)NC(=O)NC1=O` [Compound 11, 5-(N-hydroxylamino)-5-(1-methylethyl)-barbituric acid]?
HNO yield [3]: 98; k (rate of disappearance of compound and appearance of BA byproduct, single exponential fit) [3]: 3.1e-06 s⁻¹; half-life (physchem [4]): 3750 min

Which results are given for `CCC(C)C1(NO)C(=O)NC(=O)NC1=O` (stereo not drawn) [Compound 18, 5-(N-hydroxylamino)-5-(1-methylpropyl)-barbituric acid]?
HNO yield [3]: 102; k (rate of disappearance of compound and appearance of BA byproduct, single exponential fit) [3]: 5.9e-06 s⁻¹; half-life (physchem [4]): 1970 min

Which “k (rate of appearance of BA byproduct, single exponential fit)” value [1] does the source give for `CC(C)CC1(NO)C(=O)NC(=O)NC1=O` [Compound 10, 5-(N-hydroxylamino)-5-(2-methylpropyl)-barbituric acid] here?
The value was 0.0005 s⁻¹.

What about the half-life (physchem [2]) of the same compound?
The half-life was 23 min.

With `CN1C(=O)N(C)C(=O)C(Cc2ccc(Cl)cc2)(NO)C1=O` [Compound 3, 5-(N-hydroxylamino)-5-(4-chlorobenzyl)-N,N-dimethylbarbituric acid] as the compound, how does the melting point read?
Its melting point is 155 to 157 °C.

And the HNO yield [3]?
The HNO yield was 92^d.

And the “k (rate of disappearance of compound and appearance of BA byproduct, single exponential fit)” value [3]?
Its value is 0.0006 s⁻¹.

What about the “k (rate of appearance of BA byproduct, single exponential fit)” value [1] of the same compound?
Its value is 0.00025 s⁻¹.

What does the source list for `O=C1NC(=O)C(NO)(c2ccccc2)C(=O)N1` [Compound 8, 5-(N-hydroxylamino)-5-phenyl-barbituric acid]?
k (rate of appearance of BA byproduct, single exponential fit) [1]: 0.00082 s⁻¹; half-life (physchem [2]): 14 min
